Assay results reported in PMC9102953, “New Derivatives of 5-Substituted Uracils: Potential Agents with a Wide Spectrum of Biological Activity” (Molecules, 2022).
Where two headings read alike, the source gives them in different places.

Key:
HCoV-OC43 = test: Antiviral cytopathicity assay, HCoV-OC43 in HEL 299 cells; type: cell-based
[1] = test system: respiratory syncytial virus (RSV) strain A Long; test: microbe, parasite or virus in culture; type: cell-based; settings: for EC50: human respiratory syncytial virus, HEL 299, read-out: EC50 (μM) RSV A Long, HEL 299
[2] = test system: yellow fever virus (YFV) strain 17 D; test: microbe, parasite or virus in culture; type: cell-based; settings: for EC50: Yellow fever virus, Huh-7, read-out: EC50 (μM) YFV 17D, Huh7
in vitro [3] = settings: human
in vitro [4] = settings: human; remark: listed apart in the source
in vitro [5] = settings: dog
a variety of RNA viruses = type: cell-based
[6] = test system: HEL299, Huh 7 and MDCK cells
[7] = Betacoronavirus 1, OC43, HEL 299, read-out: EC50 (μM) HCoV-OC43, HEL 299
[8] = Betacoronavirus 1, OC43, HEL 299 cells, reduction of virus-induced cytopathicity by 50%, read-out: EC50 (μM) HCoV-OC43, HEL 299

| SMILES | EC50 (HCoV-OC43; [7]) | EC50 [1] | EC50 [2] | CC50 (in vitro [3]) | CC50 (in vitro [4]) | CC50 (in vitro [5]) | biological activity against HCoV OC43 (in words) (HCoV-OC43) | melting point | antiviral activity in the screening (in words) (a variety of RNA viruses) | cytotoxicity in the tested cell lines (in words) [6] | EC50 (HCoV-OC43; [8]) | inhibition of respiratory syncytial virus RSV (strain A Long) (in words) [1] | activity against yellow fever virus YFV (strain 17D) (in words) [2] |
| --- | --- | --- | --- | --- | --- | --- | --- | --- | --- | --- | --- | --- | --- |
| O=c1[nH]c(=O)n(C2C=CC(O)C2)cc1N1CCCCCC1 (racemic) [(±)-3a, (±)-1-(4′-Hydroxycyclopent-2′-en-1′-yl)-5-(azepan-1″-yl)uracil] | > 100 µM | > 100 µM | > 100 µM | > 100 µM | > 100 µM | > 100 µM |  |  |  |  |  |  |  |
| CCCCCCc1ccc(Nc2cn(C3C=CC(O)C3)c(=O)n(C3C=CC(O)C3)c2=O)cc1 (racemic) [(±)-4d, (±)-1-(4′-hydroxycyclopent-2′-en-1′-yl)-3-(4‴-hydroxycyclopent-2‴-en-1‴-yl)-5-(-((4″-hexylphenyl)amino)uracil] | 28.7 µM | > 100 µM | > 100 µM | > 100 µM | > 100 µM | 51.2 µM | moderate biological activity |  |  |  |  |  |  |
| O=c1[nH]cc(N2CCc3ccccc3C2)c(=O)[nH]1 |  |  |  |  |  |  |  | 311 to 312 °C |  |  |  |  |  |
| O=c1c(N2CCCCCC2)cn(C2C=CC(O)C2)c(=O)n1C1C=CC(O)C1 (racemic) [(±)-4a, (±)-1-(4′-hydroxycyclopent-2′-en-1′-yl)-3-(4‴-hydroxycyclopent-2‴-en-1‴-yl)-5-(azepan-1″-yl)uracil] | > 100 µM | > 100 µM | > 100 µM | > 100 µM | > 100 µM | > 100 µM |  |  |  |  |  |  |  |
| Cc1cc(C)cc(Oc2cn(C3C=CC(O)C3)c(=O)[nH]c2=O)c1 (racemic) [(±)-10a, (±)-1-(4′-Hydroxycyclopent-2′-en-1′-yl)-5-(3″,5″-dimethylphenoxy)uracil] | > 100 µM | > 100 µM | > 100 µM | > 100 µM | > 100 µM | 33.8 µM |  |  | did not show any activity | marked cytotoxicity |  |  |  |
| CCCCCCc1ccc(Nc2cn(C3C=CC(O)C3)c(=O)[nH]c2=O)cc1 (racemic) [(±)-3d, (±)-1-(4′-Hydroxycyclopent-2′-en-1′-yl)-5-((4′-hexylphenyl)amino)uracil] | > 100 µM | > 100 µM | > 100 µM |  |  | 30 µM |  |  | did not show any activity | marked cytotoxicity |  |  |  |
| CCCCOc1ccc(Oc2c[nH]c(=O)[nH]c2=O)cc1 [Compound 5b, 5-(4-Butoxyphenoxy)uracil] |  | > 100 µM | > 100 µM | > 100 µM | > 100 µM | > 100 µM |  | 271 to 274 °C |  |  | > 100 µM |  |  |
| O=c1[nH]cc(N2CCCCCC2)c(=O)[nH]1 [Compound 2a, 5-(Azepan-1-yl)uracil] |  | > 100 µM | > 100 µM | > 100 µM | > 100 µM | > 100 µM |  |  |  |  | > 100 µM |  |  |
| CC(C)(C)c1ccc(Oc2cn(C3C=CC(O)C3)c(=O)[nH]c2=O)cc1 (racemic) [(±)-10d, (±)-1-(4′-Hydroxycyclopent-2′-en-1′-yl)-5-(4″-(tert-butyl)phenoxy)uracil] | > 100 µM | > 100 µM | > 100 µM | > 100 µM | > 100 µM | > 100 µM |  |  |  |  |  |  |  |
| Cc1cc(C)cc(Oc2cn(C3C=CC(O)C3)c(=O)n(C3C=CC(O)C3)c2=O)c1 (racemic) [(±)-11a, (±)-1-(4′-hydroxycyclopent-2′-en-1′-yl)-3-(4‴-hydroxycyclopent-2‴-en-1‴-yl)-5-(3″,5″-dimethylphenoxy)uracil] | 29.8 µM | 28.7 µM | > 100 µM |  |  | 39.3 µM | moderate biological activity |  |  |  |  | inhibited |  |
| O=c1[nH]c(=O)n(C2C=CC(O)C2)cc1N1CCN(c2ccccc2)CC1 (racemic) [(±)-3b, (±)-1-(4′-Hydroxycyclopent-2′-en-1′-yl)-5-(4″-phenylpiperazin-1″-yl)uracil] | > 100 µM | > 100 µM | > 100 µM | > 100 µM | > 100 µM | > 100 µM |  |  |  |  |  |  |  |
| O=c1[nH]cc(Oc2ccc(Cl)cc2)c(=O)[nH]1 [Compound 5c, 5-(4-Chlorophenoxy)uracil] |  | > 100 µM | > 100 µM | > 100 µM | > 100 µM | > 100 µM |  | 331 to 333 °C |  |  | > 100 µM |  |  |
| CC(C)(C)c1ccc(Nc2c[nH]c(=O)[nH]c2=O)cc1 [Compound 2e, 5-((4′-tert-Butylphenyl)amino)uracil] |  | > 100 µM | > 100 µM | > 100 µM | > 100 µM | > 100 µM |  | 354.5 to 356.5 °C |  |  | > 100 µM |  |  |
| CCCCOc1ccc(Oc2cn(C3C=CC(O)C3)c(=O)[nH]c2=O)cc1 (racemic) [(±)-10b, (±)-1-(4′-Hydroxycyclopent-2′-en-1′-yl)-5-(4″-butoxyphenoxy)uracil] | > 100 µM | > 100 µM | > 100 µM | > 100 µM | > 100 µM | > 100 µM |  |  |  |  |  |  |  |
| CC(C)(C)c1ccc(Oc2cn(C3C=CC(O)C3)c(=O)n(C3C=CC(O)C3)c2=O)cc1 (racemic) [(±)-11d, (±)-1-(4′-hydroxycyclopent-2′-en-1′-yl)-3-(4‴-hydroxycyclopent-2‴-en-1‴-yl)-5-(4″-(tert-butyl)phenoxy)uracil] | > 100 µM | > 100 µM | 47.9 µM |  |  | 40.3 µM |  |  |  |  |  |  | demonstrated activity |
| CCCCCCc1ccc(Nc2c[nH]c(=O)[nH]c2=O)cc1 [Compound 2d, 5-((4′-Hexylphenyl)amino)uracil] |  | > 100 µM | > 100 µM | > 100 µM | > 100 µM | > 100 µM |  | 332 to 333 °C |  |  | > 100 µM |  |  |
| Cc1cc(C)cc(Oc2c[nH]c(=O)[nH]c2=O)c1 [Compound 5a, 5-(3,5-Dimethylphenoxy)uracil] |  | > 100 µM | > 100 µM | > 100 µM | > 100 µM | > 100 µM |  | 293 to 295 °C |  |  | > 100 µM |  |  |
| O=c1c(N2CCN(c3ccccc3)CC2)cn(C2C=CC(O)C2)c(=O)n1C1C=CC(O)C1 (racemic) [(±)-4b, (±)-1-(4′-hydroxycyclopent-2′-en-1′-yl)-3-(4‴-hydroxycyclopent-2‴-en-1‴-yl)-5-(4″-phenylpiperazin-1″-yl)uracil] | > 100 µM | > 100 µM | > 100 µM | > 100 µM | > 100 µM | > 100 µM |  |  |  |  |  |  |  |
| CC(C)(C)c1ccc(Oc2c[nH]c(=O)[nH]c2=O)cc1 [Compound 5d, 5-(4-tert-Butylphenoxy)uracil] |  | > 100 µM | > 100 µM | > 100 µM | > 100 µM | > 100 µM |  | 273 to 275 °C |  |  | > 100 µM |  |  |
| CCCCCCCc1ccc(Nc2cn(C3C=CC(O)C3)c(=O)n(C3C=CC(O)C3)c2=O)cc1 (racemic) [(±)-4f, (±)-1-(4′-hydroxycyclopent-2′-en-1′-yl)-3-(4‴-hydroxycyclopent-2‴-en-1‴-yl)-5-(-((4″-heptylphenyl)amino)uracil] | > 100 µM | > 100 µM | > 100 µM | > 100 µM | > 100 µM | > 100 µM |  |  |  |  |  |  |  |
| O=c1[nH]c(=O)n(C2C=CC(O)C2)cc1Oc1ccc(Cl)cc1 (racemic) [(±)-10c, (±)-1-(4′-Hydroxycyclopent-2′-en-1′-yl)-5-(4″-chlorophenoxy)uracil] | > 100 µM | > 100 µM | > 100 µM | > 100 µM | > 100 µM | > 100 µM |  |  |  |  |  |  |  |
| CC(C)c1ccc(Nc2cn(C3C=CC(O)C3)c(=O)[nH]c2=O)cc1 (racemic) [(±)-3g, (±)-1-(4′-Hydroxycyclopent-2′-en-1′-yl)-5-((4″-isopropylphenyl)amino)uracil] | > 100 µM | > 100 µM | > 100 µM | > 100 µM | > 100 µM | > 100 µM |  |  |  |  |  |  |  |
| CCCCCCCOc1ccc(Nc2cn(C3C=CC(O)C3)c(=O)[nH]c2=O)cc1 (racemic) [(±)-3i, (±)-1-(4′-Hydroxycyclopent-2′-en-1′-yl)-5-((4″-(heptyloxy)phenyl)amino)uracil] | 36.8 µM | > 100 µM | > 100 µM |  |  | 34 µM | moderate biological activity |  |  |  |  |  |  |
| O=c1[nH]cc(N2CCN(c3ccccc3)CC2)c(=O)[nH]1 [Compound 2b, 5-(4-Phenylpiperazin-1-yl)uracil] |  | > 100 µM | > 100 µM | > 100 µM | > 100 µM | > 100 µM |  | 352 to 354.5 °C |  |  | > 100 µM |  |  |
| CCCCCCCc1ccc(Nc2cn(C3C=CC(O)C3)c(=O)[nH]c2=O)cc1 (racemic) [(±)-3f, (±)-4′-Hydroxycyclopent-2′-en-1′-yl)-5-((4′′-heptylphenyl)amino)uracil] | 22.4 µM | > 100 µM | > 100 µM | > 100 µM | > 100 µM | 70.4 µM | moderate biological activity |  |  |  |  |  |  |
| CCC(CC)COC(=O)[C@H](C)N[P@](=O)(OC[C@H]1O[C@@](C#N)(c2ccc3c(N)ncnn23)[C@H](O)[C@@H]1O)Oc1ccccc1 [Remdesivir, reference compound] | 0.03 µM | 0.01 µM |  | > 10 µM | > 10 µM |  |  |  |  |  |  |  |  |
